Experiments:
[1] = biological target: T1, MrpORP (Dde3202) (Oleidesulfovibrio alaskensis, UniProt Q30WF0); assay: UV-visible spectroscopy after in vitro Fe-S reconstitution; format: binding; conditions: anaerobic, DTT, Fe2+ with cysteine/IscS; a second cluster in the Di-Nase domain also contributes
T1 construct: gene Dde_3202; full length, His-tagged (pJF119-3202His), produced in E. coli TG1, isolated aerobically and reconstituted; 43 kDa; [4Fe-4S] proposed between two monomers
T1 sequence (Q30WF0 1-415): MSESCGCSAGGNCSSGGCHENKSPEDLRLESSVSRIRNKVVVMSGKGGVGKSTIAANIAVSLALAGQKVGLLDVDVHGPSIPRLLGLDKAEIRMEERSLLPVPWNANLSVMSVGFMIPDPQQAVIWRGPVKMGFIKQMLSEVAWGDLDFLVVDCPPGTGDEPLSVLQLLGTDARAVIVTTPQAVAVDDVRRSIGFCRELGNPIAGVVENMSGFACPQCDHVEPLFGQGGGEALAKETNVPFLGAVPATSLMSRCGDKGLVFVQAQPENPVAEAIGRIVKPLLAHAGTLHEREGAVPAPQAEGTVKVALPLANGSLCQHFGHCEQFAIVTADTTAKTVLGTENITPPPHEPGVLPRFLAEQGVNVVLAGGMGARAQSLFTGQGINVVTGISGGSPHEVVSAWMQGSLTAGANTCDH

[2] = biological target: T2, Orp3-Orp4-Orp8 complex (Nitratidesulfovibrio vulgaris, UniProt Q72A93+Q72A94); assay: Fe-S cluster transfer from holo-MrpORP, Ni-NTA separation, UV-visible spectroscopy; format: binding; conditions: anaerobic, DTT; cluster type from sequence motifs of Orp3 and Orp4, distribution between chains not resolved
T2 construct: gene DVU_2103; His-tagged Orp3 (pBMC6C3::2103His) co-purified with Orp4 and Orp8 from DvH, metal centres removed; with Orp8, dinitrogenase iron-molybdenum cofactor biosynthesis domain protein
T2 sequence (Q72A94 1-287): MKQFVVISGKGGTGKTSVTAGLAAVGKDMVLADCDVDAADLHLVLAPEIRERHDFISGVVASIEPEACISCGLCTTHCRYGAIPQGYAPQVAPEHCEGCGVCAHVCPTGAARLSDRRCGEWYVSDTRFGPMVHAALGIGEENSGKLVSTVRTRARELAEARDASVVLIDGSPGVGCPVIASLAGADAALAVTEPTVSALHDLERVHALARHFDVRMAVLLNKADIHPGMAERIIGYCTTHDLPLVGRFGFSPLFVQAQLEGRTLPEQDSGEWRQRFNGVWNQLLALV
T2 sequence (Q72A93 1-301): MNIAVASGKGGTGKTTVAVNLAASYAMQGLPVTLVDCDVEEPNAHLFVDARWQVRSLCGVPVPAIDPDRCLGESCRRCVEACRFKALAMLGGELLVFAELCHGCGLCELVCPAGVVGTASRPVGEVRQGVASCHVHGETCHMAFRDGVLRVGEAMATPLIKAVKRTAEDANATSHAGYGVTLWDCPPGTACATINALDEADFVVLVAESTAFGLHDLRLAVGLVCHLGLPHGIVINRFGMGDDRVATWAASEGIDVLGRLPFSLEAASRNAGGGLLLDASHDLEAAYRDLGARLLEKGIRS
T2 sequence (Q72A89 1-119 partner): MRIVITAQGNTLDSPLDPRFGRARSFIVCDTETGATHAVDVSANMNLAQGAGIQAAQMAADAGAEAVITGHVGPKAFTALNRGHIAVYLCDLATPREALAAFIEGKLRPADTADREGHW

[4Fe-4S] cluster
A400/A280 [1]: 0.3
A400/A280 [2]: 0.42

From article PMC6345978, “The bacterial MrpORP is a novel Mrp/NBP35 protein involved in iron-sulfur biogenesis” (Scientific Reports, 2019)
